# Measured values taken from US20230143751A1, “Aromatic Compound And Use Thereof In Preparing Antineoplastic Drugs” (Shanghai Zheye Biotechnology Co. Ltd., priority 2020, published 2023).
# Where two headings read alike, the source gives them in different places.
# How the values were obtained:
# Assay type in all cases: cell-based
# MIA PaCa-2 cells = experiment: Cell proliferation activity of MIA PaCa-2 by CellTiter-Glo reagent; conditions: 72 h, CellTiter-Glo; for IC50: Homo sapiens, MIA PaCa-2, read-out: IC50 value of cell proliferation inhibitory activity of the compound on MIA PaCa-2
# Method: (§1) MIA PaCa-2 cells in exponential growth phase were digested with trypsin-EDTA, plated in a 96-well plate with 2000-3000 cells per well, and incubated overnight at 37° C. with 5% CO2. Mother solutions were prepared from the test compounds by using DMSO, subjected to gradient elution with DMEM growth medium, and then added into the 96-well plate and incubated in an incubator for 72 h at 37° C. with 5% CO2. After the incubation, CellTiter-Glo test reagent with an equal volume was added into each well and the obtained 96-well plate was incubated after shaking. The chemiluminescence values were determined by microplate reader, and the IC50 values of the test compounds inhibiting the proliferation of MIA PaCa-2 cells were fitted and calculated by GraphPad Prism software.
# The test method of inhibitory activity was the same as that in Test 2 in “Biological Tests” part.
# NCI-H358 = experiment: Cell proliferation inhibitory activity on NCI-H358, 3D model test (agarose colony formation); conditions: for IC50: Homo sapiens, NCI-H358, 3D agarose colony formation, NBT staining
# Method: 100 μl of agarose gel with a high concentration was spread in a 96-well plate as the bottom agarose gel layer. Agarose with a low concentration and growth medium containing cells were mixed and then spread on the bottom agar layer, cooled and solidified, then incubated overnight at 37° C. Mother solutions were prepared from the test compounds by using DMSO, and then subjected to gradient elution with RPMI 1640 growth medium. The solutions of test compounds with different concentrations after gradient elution were added to the 96-well plate comprising an upper layer of agar gel-cells. Solvent control well was set up and the plate was incubated in a CO2 incubator. The drug-containing medium was changed during the incubation period and the cell growth situation was observed. After the incubation, the cells were stained with NBT and the number of cell colony formation was counted, and the IC50 values of the compounds inhibiting cell proliferation were derived.
# NCI-H358 cells = experiment: Cell proliferation activity of NCI-H358 by CellTiter-Glo reagent; conditions: 72 h, CellTiter-Glo; for IC50: test 3, read-out: IC50 value of cell proliferation inhibitory activity of NCI-H358
# Method: as §1, with “NCI-H358” for “MIA PaCa-2”, “Mother solutions were prepared from the test compounds by using DMSO, subjected to gradient elution with DMEM growth medium, and then added into the 96-well plate and incubated in an incubator for 72 h at 37° C. with 5% CO2.” left out
# The test method of inhibitory activity was the same as that in Test 3 in “Biological Tests” part.
smiles,measurement,setting,value
[2H]C([2H])=Cc1cccc(F)c1-c1nc2c(cc1F)c(N1CCN(C(=O)C=C)C[C@@H]1C)nc(=O)n2-c1c(C)ccnc1C(C)C [Compound 3-19],anti-cell proliferation activity against KRAS G12C mutant type cells MIA PaCa-2 (in words),MIA PaCa-2 cells,significant anti-cell proliferation activity
same,IC50,MIA PaCa-2 cells,< 50 nM
same,anti-cell proliferation activity against KRAS G12C mutant type cells NCI-H358 (in words),NCI-H358; 3D model test,significant anti-cell proliferation activity
same,IC50,NCI-H358,< 50 nM
[2H]C([2H])=Cc1ccccc1-c1nc2c(cc1F)c(N1CCN(C(=O)C=C)C[C@@H]1C)nc(=O)n2-c1c(C)ccnc1C(C)C [Compound 3-23],IC50,MIA PaCa-2 cells,< 50 nM
same,IC50,NCI-H358,< 50 nM
[2H]C([2H])=Cc1ccccc1-c1nc2c(cc1Cl)c(N1CCN(C(=O)C=C)C[C@@H]1C)nc(=O)n2-c1c(C)ccnc1C(C)C [Compound 3-24],IC50,MIA PaCa-2 cells,< 50 nM
same,IC50,NCI-H358,< 50 nM
[2H]C([2H])=Cc1cccc(F)c1-c1nc2c(cc1F)c(N1[C@@H](C)CN(C(=O)C(=C)F)C[C@@H]1C)nc(=O)n2-c1c(C)ccnc1C(C)C [Compound 3-25],IC50,NCI-H358,< 50 nM
[2H]C([2H])=Cc1cccc(F)c1-c1nc2c(cc1F)c(N1CCN(C(=O)C(=C)F)C[C@@H]1C)nc(=O)n2-c1c(C)ccnc1C(C)C [Compound 3-27],IC50,NCI-H358,< 50 nM
[2H][C@]1(C)CN(C(=O)C=C)CCN1c1nc(=O)n(-c2c(C)ccnc2C(C)C)c2nc(-c3c(F)cccc3C=C)c(Cl)cc12 [Compound 3-49],anti-cell proliferation activity against KRAS G12C mutant type cells NCI-H358 (in words),NCI-H358 cells,significant anti-cell proliferation activity
same,IC50,"NCI-H358 cells; Homo sapiens, NCI-H358, 72 h",< 50 nM
[2H]/C=C(\[2H])C(=O)N1CCN(c2nc(=O)n(-c3c(C)ccnc3C(C)C)c3nc(-c4c(F)cccc4C=C)c(Cl)cc23)[C@@H](C)C1 [Compound 3-51],anti-cell proliferation activity against KRAS G12C mutant type cells NCI-H358 (in words),NCI-H358 cells,significant anti-cell proliferation activity
same,IC50,"NCI-H358 cells; Homo sapiens, NCI-H358, 72 h",< 50 nM
[2H]C([2H])=Cc1cccc(F)c1-c1nc2c(cc1F)c(N1CCN(C(=O)C=C)C[C@@H]1C)nc(=O)n2-c1c(C([2H])([2H])[2H])ccnc1C(C)C [Compound 4-3],IC50,MIA PaCa-2 cells,< 50 nM
same,IC50,NCI-H358,< 50 nM
[2H]C([2H])=Cc1cccc(F)c1-c1nc2c(cc1F)c(N1[C@@H](C)CN(C(=O)C(=C)F)C[C@@H]1C)nc(=O)n2-c1c(C([2H])([2H])[2H])ccnc1C(C)C [Compound 4-9],IC50,NCI-H358,< 50 nM
[2H]C([2H])=Cc1cccc(F)c1-c1nc2c(cc1F)c(N1CCN(C(=O)C(=C)F)C[C@@H]1C)nc(=O)n2-c1c(C([2H])([2H])[2H])ccnc1C(C)C [Compound 4-11],IC50,NCI-H358,< 50 nM
[2H]C([2H])=Cc1ccccc1-c1nc2c(cc1F)c(N1CCN(C(=O)C(=C)F)C[C@@H]1C)nc(=O)n2-c1c(C([2H])([2H])[2H])ccnc1C(C)C [Compound 4-16],IC50,NCI-H358,< 50 nM
[2H]C([2H])([2H])c1ccnc(C(C)C)c1-n1c(=O)nc(N2CCN(C(=O)C=C)C[C@@H]2C)c2cc(F)c(-c3ccccc3C=C)nc21 [Compound 4-23],IC50,MIA PaCa-2 cells,< 50 nM
same,IC50,NCI-H358,< 50 nM
[2H]C([2H])=Cc1cccc(F)c1-c1nc2c(cc1F)c(N1CCN(C(=O)C=C)C[C@@H]1C)nc(=O)n2-c1c(C(C)C)ccnc1C(C)C [Compound 5-3],IC50,MIA PaCa-2 cells,< 50 nM
same,IC50,NCI-H358,< 50 nM
[2H]C([2H])=Cc1cccc(F)c1-c1nc2c(cc1F)c(N1[C@@H](C)CN(C(=O)C(=C)F)C[C@@H]1C)nc(=O)n2-c1c(C(C)C)ccnc1C(C)C [Compound 5-9],IC50,NCI-H358,< 50 nM
[2H]C([2H])=Cc1cccc(F)c1-c1nc2c(cc1F)c(N1CCN(C(=O)C(=C)F)C[C@@H]1C)nc(=O)n2-c1c(C(C)C)ccnc1C(C)C [Compound 5-11],IC50,NCI-H358,< 50 nM
C=CC(=O)N1CCN(c2nc(=O)n(-c3c(C)ccnc3C(C)C)c3nc(-c4c(F)cccc4C=C)c(Cl)cc23)[C@@H](C)C1 [Example 3-12P],IC50,NCI-H358 cells,> 50 nM
